Test results reported in paper PMC8216263 (Pharmaceutical Biology, 2021).
In brackets after ≈: the same amount, converted by molar mass. Read-outs that look alike come from different tables or passages of the source.

Assays:
[1] = Single- and multiple-dose plasma pharmacokinetics of GA and PCA after oral RLQ in healthy subjects; assay type: in vivo, human; conditions: for AUC(0-inf) / AUC(0-t) / Vd/F / k el / half-life: 8 g; for Vd/F: read-out: Vz/F; for k el: read-out: ke (converted)
Method: The study protocol was approved by the Ethics Committee of the Second Affiliated Hospital of Tianjin University of Traditional Chinese Medicine. […] Subjects were offered standard meals at 4 and 10 h after dosing. Water was not permitted during the hour before and the hour after dosing, except for 240 mL administered with dosing; additional water intake was allowed at all other times.
In the single-dose study, 8 g of RLQ was administered orally on day 1. A 7-d washout time was designed between single-dose and multiple-dose pharmacokinetic studies. In the multiple-dose study, subjects received multiple doses of RLQ (8 g, t.i.d.) for seven consecutive days from day 8 to day 14 and a single dose of RLQ (8 g) on the morning of day 15. […] Additional pre-dose samples were collected in the morning on days 12, 13 and 14. […] All samples were stored at −80 °C until analysis.
All analytes were extracted from plasma and urine samples by simple protein precipitation extraction method using acetonitrile. Briefly, 5 µL of internal standard solution and 300 μL of acetonitrile were added to the spiked blank matrix (100 μL) and vortexed for 3 min and then centrifuged at 13,000 × g for 10 min. The supernatant was transferred and dried using a flow of nitrogen. The residue was re-dissolved in 100 µL of 10% methanol solution containing 0.1% formic acid. An aliquot of 5 µL solution was injected into the LC-MS/MS system for analysis.
The chromatographic separation was performed on an Acquity Ultra Performance LC instrument (Waters, Milford, MA) with a gradient programme in an ACQUITY UPLC BEH C18 column (2.1 mm × 100 mm, 1.7 μm). […] The injection volume was 2 µL. The mass spectrometry analysis was performed on an AB Sciex Triple Quad 5500 MS (Framingham, MA) equipped with an ESI source.
The peak plasma concentration (Cmax) and time to reach the peak plasma concentration (Tmax) were calculated from the actual plasma concentration data. The area under the plasma concentration-time curve from zero to the last measurable concentration (AUC0–t) was calculated via the linear trapezoidal rule. AUC0–∞ was calculated using the following formula: AUC0–∞ = AUC0–t + Ct/ke, where Ct is the last plasma concentration measured. […] The accumulation index was calculated as AUCss/AUC0–t.

OAT1 = target: T1, OAT1 (Homo sapiens, UniProt Q4U2R8); test: Inhibition of OAT1-mediated 14C-PAH uptake in MDCK-OAT1 cells; assay type: cell-based
T1 construct: host or cells: MDCK
T1 sequence (Q4U2R8 1-563): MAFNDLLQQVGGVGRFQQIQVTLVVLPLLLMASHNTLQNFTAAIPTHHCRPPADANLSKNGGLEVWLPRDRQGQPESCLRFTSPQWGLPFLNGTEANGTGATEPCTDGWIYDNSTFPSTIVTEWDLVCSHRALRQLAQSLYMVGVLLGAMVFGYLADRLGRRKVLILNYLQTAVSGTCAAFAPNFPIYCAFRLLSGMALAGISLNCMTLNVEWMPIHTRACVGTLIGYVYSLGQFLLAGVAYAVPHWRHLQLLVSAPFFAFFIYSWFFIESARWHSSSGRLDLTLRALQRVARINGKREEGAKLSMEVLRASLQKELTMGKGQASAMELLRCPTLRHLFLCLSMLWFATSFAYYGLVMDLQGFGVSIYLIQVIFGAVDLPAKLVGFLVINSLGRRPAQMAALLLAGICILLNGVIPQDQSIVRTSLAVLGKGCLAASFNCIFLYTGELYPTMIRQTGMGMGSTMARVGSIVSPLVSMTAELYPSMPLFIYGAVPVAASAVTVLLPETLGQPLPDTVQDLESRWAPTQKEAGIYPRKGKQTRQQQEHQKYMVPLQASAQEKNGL
Method: Cells were cultured in DMEM supplemented with 10% FBS, 100 units/mL penicillin and 100 units/mL streptomycin. […] Cell culture flasks, 24-well cell culture plates, and transwell polycarbonate inserts (12 mm diameter, 0.4 μm pore size) were purchased from Corning Co-star Corp. (Bedford, MA).
The MDCK-OAT1, S2-OAT3, S2-OCT2 and HEK293-OATP1B1 cell lines were utilized in this study. […] Briefly, S2-OAT3, S2-OCT2 and S2-mock cells were trypsinized and uniformly suspended in the culture medium’s designated volume to provide a density of 2.0 × 10^5 cells/mL. A 1.0-mL aliquot of the cell suspension was added into each well of 24-well insert plates. HEK293-OATP1B1, MDCK-OAT1 and their mock cells were seeded in 24-well plates at a density of 1.5 × 10^5 cells/well. […] Three washes terminated the experiment with ice-cold DPBS buffer after removing the incubation buffer. Cells were lysed with 400 μL of […] sodium hydroxide solution. The cell lysate and 3.0 mL of aquasol-2 scintillation fluid were put into a scintillation flask. […] The final concentration of DMSO in the assay was less than 0.1%. All experiments were performed in triplicate.

[2] = both sexes, human, plasma, oral, human plasma, multiple dose RLQ 8 g
[3] = both sexes, human, plasma, oral, human plasma, multiple dose RLQ 8 g, read-out: AUC0–t
[4] = both sexes, human, plasma, oral, human plasma, single dose RLQ 8 g
[5] = both sexes, human, plasma, oral, human plasma, single dose RLQ 8 g, read-out: AUC0–t
[6] = both sexes, human, plasma, oral, multiple dose RLQ 8 g
[7] = both sexes, human, plasma, oral, multiple dose RLQ 8 g, read-out: t1/2 (converted)
[8] = both sexes, human, plasma, oral, single dose RLQ 8 g
[9] = both sexes, human, plasma, oral, single dose RLQ 8 g, read-out: t1/2 (converted)
[10] = both sexes, human, plasma, oral, single dose RLQ 8 g, median (range), read-out: tmax
[11] = both sexes, human, plasma, po, abstract summary, oral RLQ, read-out: half-life
[12] = both sexes, oral, human plasma, multiple dose RLQ 8 g t.i.d. 7 d then single dose, means ± SD, read-out: Cmax
[13] = both sexes, human plasma, single oral dose RLQ 8 g, means ± SD, read-out: Cmax
[14] = human, plasma, oral, single dose RLQ 8 g, female subjects n = 6, read-out: Cmax in women
[15] = human, plasma, oral, single dose RLQ 8 g, male subjects n = 6, read-out: Cmax in men
[16] = multiple dose RLQ 8 g, median (range)
[17] = estimated, 14C-PAH 5 µM, MDCK-OAT1 cells

O=C(O)c1cc(O)c(O)c(O)c1 [GA, gallic acid]
time to absorption into the blood after administration ([1]; abstract summary, oral RLQ): ≤ 1 h | AUC(0-inf) [1, 2]: 209 ± 63.5 ng·h/mL | AUC(0-t) [1, 3]: 205 ± 62.8 ng·h/mL | AUC(0-inf) [1, 4]: 256 ± 74.9 ng·h/mL | AUC(0-t) [1, 5]: 251 ± 74.4 ng·h/mL | Vd/F [1, 6]: 292 ± 113 L | k el [1, 6]: 0.00015 s⁻¹ | half-life [1, 7]: 80.4 ± 19.2 min | Vd/F [1, 8]: 241 ± 82.7 L | k el [1, 8]: 0.000147 s⁻¹ | half-life [1, 9]: 82.2 ± 22.2 min | tmax [1, 10]: 45 min | half-life [1, 11]: < 120 min | Cmax [1, 12]: 118 ± 39.5 ng/mL | Cmax [1, 13]: 139 ± 49.4 ng/mL | AUC(0-t) ([1]; female, human, plasma, oral, single dose RLQ 8 g, female subjects, read-out: AUC0–t in women): 301 ± 46.3 ng·h/mL | Cmax [1, 14]: 176 ng/mL | Cmax [1, 15]: 102 ng/mL | AUC(0-t) ([1]; male, human, plasma, oral, single dose RLQ 8 g, male subjects, read-out: AUC0–t in men): 201 ± 63.3 ng·h/mL | CL/F ([1]; multiple dose RLQ 8 g): 152 ± 51.6 L/h | tmax [1, 16]: 0.75 (0.75, 1) h | Vz/F and CL/F, females versus males ([1]; p < 0.05): significantly lower levels in females than in males | CL/F ([1]; single dose RLQ 8 g): 124 ± 42.0 L/h | IC50 (OAT1; [17]): 3.73 µM | IC50 (OAT1) (OAT1; [17]): 634.1 µg/L (≈ 3.73 µM)

O=C(O)c1ccc(O)c(O)c1 [PCA, protocatechuic acid]
response in human plasma and urine samples ([1]; LC-MS/MS after oral RLQ): relatively high response | time to absorption into the blood after administration ([1]; abstract summary, oral RLQ): ≤ 1 h | accumulation ratio (AUCss/AUC0–t) ([1]; after multiple doses, median (range)): 1.04 (0.56–1.51) | AUC(0-inf) [1, 2]: 3.09 ± 0.9 ng·h/mL | AUC(0-t) [1, 3]: 2.81 ± 0.81 ng·h/mL | AUC(0-inf) [1, 4]: 3.64 ± 1.35 ng·h/mL | AUC(0-t) [1, 5]: 3.2 ± 1.17 ng·h/mL | Vd/F [1, 6]: 139 ± 46.1 L | k el [1, 6]: 0.000789 s⁻¹ | half-life [1, 7]: 15.6 ± 4.8 min | Vd/F [1, 8]: 158 ± 101 L | k el [1, 8]: 0.000672 s⁻¹ | half-life [1, 9]: 19.8 ± 8.4 min | tmax [1, 10]: 19.8 min | half-life [1, 11]: < 120 min | Cmax [1, 12]: 5.45 ± 1.58 ng/mL | Cmax [1, 13]: 6.06 ± 2.28 ng/mL | Cmax [1, 14]: 7.58 ng/mL | Cmax [1, 15]: 4.54 ng/mL | CL/F ([1]; multiple dose RLQ 8 g): 379 ± 119 L/h | tmax [1, 16]: 0.33 (0.17, 0.5) h | CL/F ([1]; single dose RLQ 8 g): 337 ± 135 L/h | inhibitory effect on OAT1 (OAT1; GA 50–5000 μg/L, PCA 10–1000 μg/L): no significant inhibitory effect
